Assay results taken from patent US6583180B2, “Glucocorticoid receptor modulators” (Abbott Laboratories, priority 2001, dated 2003).

Tests used:
[1] = biological target: T1, progesterone receptor (PR) (Homo sapiens, UniProt P06401); assay: Radioligand binding assay for progesterone receptor (similar protocol);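 further: radioligand binding measured with cytosol preparations containing the human progesterone receptor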
T1 sequence (P06401 1-933): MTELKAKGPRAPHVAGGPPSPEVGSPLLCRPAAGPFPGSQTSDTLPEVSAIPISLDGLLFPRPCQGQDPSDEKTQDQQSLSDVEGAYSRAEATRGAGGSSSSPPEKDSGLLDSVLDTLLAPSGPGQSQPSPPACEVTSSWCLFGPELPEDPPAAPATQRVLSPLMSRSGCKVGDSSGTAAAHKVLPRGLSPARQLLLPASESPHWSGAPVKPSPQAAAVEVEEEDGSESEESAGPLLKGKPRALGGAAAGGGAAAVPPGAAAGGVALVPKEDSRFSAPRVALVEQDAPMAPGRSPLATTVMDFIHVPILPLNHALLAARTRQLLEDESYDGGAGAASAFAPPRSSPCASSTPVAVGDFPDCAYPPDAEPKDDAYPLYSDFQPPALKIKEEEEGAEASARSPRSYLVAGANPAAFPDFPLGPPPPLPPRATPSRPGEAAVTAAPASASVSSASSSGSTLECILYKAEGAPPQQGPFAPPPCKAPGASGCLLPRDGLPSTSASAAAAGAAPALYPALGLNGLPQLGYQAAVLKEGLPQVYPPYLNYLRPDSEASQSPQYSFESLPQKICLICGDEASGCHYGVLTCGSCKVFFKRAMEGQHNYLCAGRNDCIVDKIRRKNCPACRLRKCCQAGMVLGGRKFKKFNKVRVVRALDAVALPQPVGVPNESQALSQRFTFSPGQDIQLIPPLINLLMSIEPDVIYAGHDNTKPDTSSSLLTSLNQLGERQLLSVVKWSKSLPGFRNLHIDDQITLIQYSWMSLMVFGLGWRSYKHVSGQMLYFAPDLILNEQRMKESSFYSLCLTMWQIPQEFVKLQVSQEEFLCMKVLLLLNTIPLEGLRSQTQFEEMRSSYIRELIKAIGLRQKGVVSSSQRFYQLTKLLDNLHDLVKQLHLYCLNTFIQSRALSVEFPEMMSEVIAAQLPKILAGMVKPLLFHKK
Description: Methods for Radiolipand Binding Studies with Human Glucocorticoid and Progesterone Receptor Cytosol

[2] = biological target: T2, Human glucocorticoid receptors (Homo sapiens, UniProt P04150); assay: Radioligand filter binding assay, displacement of 3[H]-dexamethasone from hGR; conditions: read-out: GR Binding (% Inhibition at 1.7 μM)
T2 construct: made in house; host or cells: Sf9 insect cells, recombinant baculovirus (BAC-TO-BAC)
T2 sequence (P04150 1-777): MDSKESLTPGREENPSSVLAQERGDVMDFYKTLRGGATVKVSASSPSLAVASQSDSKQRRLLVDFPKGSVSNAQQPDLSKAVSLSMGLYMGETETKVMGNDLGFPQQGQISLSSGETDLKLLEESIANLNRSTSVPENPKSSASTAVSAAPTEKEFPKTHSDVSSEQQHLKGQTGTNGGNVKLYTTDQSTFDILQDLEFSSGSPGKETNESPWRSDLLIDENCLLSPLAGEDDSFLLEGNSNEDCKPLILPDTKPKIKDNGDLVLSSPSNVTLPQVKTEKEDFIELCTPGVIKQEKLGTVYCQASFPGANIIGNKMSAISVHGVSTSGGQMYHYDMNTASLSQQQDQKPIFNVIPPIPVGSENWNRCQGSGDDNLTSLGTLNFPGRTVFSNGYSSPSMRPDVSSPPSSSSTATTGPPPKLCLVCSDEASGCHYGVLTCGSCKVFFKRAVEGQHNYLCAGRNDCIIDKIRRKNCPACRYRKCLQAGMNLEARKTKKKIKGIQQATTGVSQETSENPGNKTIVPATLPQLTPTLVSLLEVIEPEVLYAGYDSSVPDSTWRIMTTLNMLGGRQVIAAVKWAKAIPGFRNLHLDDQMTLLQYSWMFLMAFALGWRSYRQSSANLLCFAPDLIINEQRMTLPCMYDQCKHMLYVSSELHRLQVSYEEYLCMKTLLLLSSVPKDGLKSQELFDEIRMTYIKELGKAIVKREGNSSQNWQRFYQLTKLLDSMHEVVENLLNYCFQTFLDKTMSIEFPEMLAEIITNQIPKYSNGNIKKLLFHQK
Procedure, shortened: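 Recombinant hGR extract from baculovirus-infected Sf9 cells (final ~1 nM receptor) incubated with ³H-dexamethasone and test compound dilutions in duplicate, EDTA/phosphate pH 8 buffer with MTG, overnight (15-20 h) at +4° C. Bound label collected on PEI-treated GF/B filters and scintillation-counted; IC50 from four-parameter fit of corrected cpm.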

SMILES	IC50 [1] [nM]	inhibition at 1.7 µM [2] [%]
Cc1c(NS(C)(=O)=O)cccc1N(Cc1ccccc1)Cc1ccc(Oc2ccc(CCC(=O)NCCCCCO)cc2)cc1 [Example 149, 3-(4-{4-[(benzyl{2-methyl-3-[(methylsulfonyl)amino]phenyl}amino)methyl]phenoxy}phenyl)-N-(5-hydroxypentyl)propanamide]	4290	94.7
Cc1c(NS(C)(=O)=O)cccc1N(Cc1ccccc1)Cc1ccc(Oc2ccc(CCC(=O)NCCCCO)cc2)cc1 [Example 150, 3-(4-{4-[(benzyl{2-methyl-3-[(methylsulfonyl)amino]phenyl}amino)methyl]phenoxy}phenyl)-N-(4-hydroxybutyl)propanamide]	2550	94.3
Cc1c(NS(C)(=O)=O)cccc1N(Cc1ccc(Oc2ccc(CCCC(=O)NCCCN3CCCC3=O)cc2)cc1)Cc1ccc(F)cc1F [Example 75, 4-(4-{4-[((2,4-difluorobenzyl){2-methyl-3-[(methylsulfonyl)amino]phenyl}amino)methyl]phenoxy}phenyl)-N-[3-(2-oxopyrrolidin-1-yl)propyl]butanamide]	2350	98.3
COc1ccc(CN(Cc2ccc(F)cc2F)c2cccc(NS(C)(=O)=O)c2C)cc1 [Example 22, N-{3-[(2,4-difluorobenzyl)(4-methoxybenzyl)amino]-2-methylphenyl}methanesulfonamide]	1480	
Cc1c(NS(C)(=O)=O)cccc1N(Cc1ccccc1)Cc1ccc(Br)cc1 [Example 13, N-{3-[benzyl(4-bromobenzyl)amino]-2-methylphenyl}methanesulfonamide]	1860	
Cc1c(NS(C)(=O)=O)cccc1N(Cc1ccccc1)Cc1ccc(Cl)cc1 [Example 29, N-{3-[benzyl(4-chlorobenzyl)amino]-2-methylphenyl}methanesulfonamide]	> 10000	
CSc1ccc(CN(Cc2ccc(Cl)cc2F)c2cccc(NS(C)(=O)=O)c2C)cc1 [Example 144, N-(3-{(4-chloro-2-fluorobenzyl)[4-(methylthio)benzyl]amino}-2-methylphenyl)methanesulfonamide]	1300	
Cc1c(NS(C)(=O)=O)cccc1N(Cc1ccccc1)Cc1ccc(F)cc1F [Example 10, N-{3-[benzyl(2,4-difluorobenzyl)amino]-2-methylphenyl}methanesulfonamide]	2310	
Cc1c(NS(C)(=O)=O)cccc1N(Cc1ccccc1)Cc1ccc(OCC=CBr)cc1 [Example 35, N-{3-[benzyl(4-{[3-bromo-2-propenyl]oxy}benzyl)amino]-2-methylphenyl}methanesulfonamide]	> 10000	
Cc1c(NS(C)(=O)=O)cccc1N(Cc1ccccc1)Cc1ccc(Oc2ccc(C(=O)O)cc2)cc1 [Example 96, 4-{4-[(benzyl{2-methyl-3-[(methylsulfonyl)amino]phenyl}amino)methyl]phenoxy}benzoic acid]	> 1000	
Cc1c(NS(C)(=O)=O)cccc1N(Cc1ccccc1)Cc1ccc(Cl)cc1Cl [Example 32, N-{3-[benzyl(2,4-dichlorobenzyl)amino]-2-methylphenyl}methanesulfonamide]	1730	

More lines, in order of falling IC50 [1], values ahead:

IC50 [1] [nM]	inhibition at 1.7 µM [2] [%]	SMILES
1030	92.9	Cc1c(NS(C)(=O)=O)cccc1N(Cc1ccccc1)Cc1ccc(Oc2ccc(CCCCO)cc2)cc1 [Example 101, N-[3-(benzyl{4-[4-(4-hydroxybutyl)phenoxy]benzyl}amino)-2-methylphenyl]methanesulfonamide]
921	92.3	Cc1c(NS(C)(=O)=O)cccc1N(Cc1ccc(OCc2ccoc2)cc1)Cc1ccc(F)cc1F [Example 154, N-(3-{(2,4-difluorobenzyl)[4-(3-furylmethoxy)benzyl]amino}-2-methylphenyl)methanesulfonamide]
743		Cc1c(NS(C)(=O)=O)cccc1N(Cc1ccccc1)Cc1ccc(Oc2ccc(CCCC(=O)NCC(=O)O)cc2)cc1 [Example 107, N-[4-(4-{4-[(benzyl{2-methyl-3-[(methylsulfonyl)amino]phenyl}amino)methyl]phenoxy}phenyl)butanoyl]glycine]
468	97.9	Cc1c(NS(C)(=O)=O)cccc1N(Cc1ccc(Oc2ccc(CCC(=O)O)cc2)cc1)Cc1ccccc1F [Example 84, 3-(4-{4-[((2-fluorobenzyl){2-methyl-3-[(methylsulfonyl)amino]phenyl}amino)methyl]phenoxy}phenyl)propanoic acid]
462	92	Cc1c(NS(C)(=O)=O)cccc1N(Cc1ccccc1)Cc1ccc(Oc2cccc(OCCCN(C)C)c2)cc1 [Example 72, N-{3-[benzyl(4-{3-[3-(dimethylamino)propoxy]phenoxy}benzyl)amino]-2-methylphenyl}methanesulfonamide]
357		Cc1c(NS(C)(=O)=O)cccc1N(Cc1ccccc1F)Cc1ccc(Cl)cc1F [Example 145, N-{3-[(4-chloro-2-fluorobenzyl)(2-fluorobenzyl)amino]-2-methylphenyl}methanesulfonamide]
351	96.9	Cc1c(NS(C)(=O)=O)cccc1N(Cc1ccc(F)cc1)Cc1ccc(Oc2ccc(CCC(=O)O)cc2)cc1 [Example 85, 3-(4-{4-[((4-fluorobenzyl){2-methyl-3-[(methylsulfonyl)amino]phenyl}amino)methyl]phenoxy}phenyl)propanoic acid]
214	96.5	Cc1c(NS(C)(=O)=O)cccc1N(Cc1ccc(Oc2cccc(OCC(=O)O)c2)cc1)Cc1ccc(F)cc1F [Example 110, (3-{4-[((2,4-difluorobenzyl){2-methyl-3-[(methylsulfonyl)amino]phenyl}amino)methyl]phenoxy}phenoxy)acetic acid]
177	98.1	Cc1c(NS(C)(=O)=O)cccc1N(Cc1ccc(Oc2cccc(OCC(=O)O)c2)cc1)Cc1ccc(Cl)cc1F [Example 83, (3-{4-[((4-chloro-2-fluorobenzyl){2-methyl-3-[(methylsulfonyl)amino]phenyl}amino)methyl]phenoxy}phenoxy)acetic acid]
165		Cc1c(NS(C)(=O)=O)cccc1N(Cc1ccccc1)Cc1ccc(Oc2cccc(O)c2)cc1 [Example 115, N-(3-{benzyl[4-(3-hydroxyphenoxy)benzyl]amino}-2-methylphenyl)methanesulfonamide]
149	96.5	Cc1c(NS(C)(=O)=O)cccc1N(Cc1ccc(Oc2ccc(CCC(=O)O)cc2)cc1)Cc1ccccc1Br [Example 76, 3-(4-{4-[((2-bromobenzyl){2-methyl-3-[(methylsulfonyl)amino]phenyl}amino)methyl]phenoxy}phenyl)propanoic acid]
122	86.9	COCCOCCOc1cccc(Oc2ccc(CN(Cc3ccccc3)c3cccc(NS(C)(=O)=O)c3C)cc2)c1 [Example 69, N-{3-[benzyl(4-{3-[2-(2-methoxyethoxy)ethoxy]phenoxy}benzyl)amino]-2-methylphenyl}methanesulfonamide]
8.9		Cc1c(NS(C)(=O)=O)cccc1N(Cc1ccc(Oc2ccc(F)c(OCC(=O)O)c2)cc1)Cc1ccc(F)cc1F [Example 305, (5-(4-(((2,4-difluorobenzyl)(2-methyl-3-((methylsulfonyl)amino)phenyl)amino)methyl)phenoxy)-2-fluorophenoxy)acetic acid]
